The values below come from patent USRE49080E1, “Glycoside derivatives and uses thereof” (Novartis AG, priority 2009, dated 2022).

Test [1] addresses human SGLT1 (Homo sapiens (Human), UniProt P13866). Description: SGLT1 assay: analogous test with hSGLT1 cDNA expressed in CHO-K1 or HEK293 cells. It is filed as cell-based. Conditions: n = 1-4; 14C-AMG uptake, cells expressing hSGLT1. On the procedure:
(§1) The SGLT-2 assay is carried out as follows: CHO-hSGLT2 cells are cultivated in Ham's F12 Medium (BioWhittaker) with 10% foetal calf serum and 250 μg/mL zeocin (Invitrogen), and HEK293-hSGLT2 cells are cultivated in DMEM medium with 10% foetal calf serum and 250 μg/mL zeocin (Invitrogen). The cells are detached from the culture flasks by washing twice with PBS and subsequently treating with trypsin/EDTA. After the addition of cell culture medium the cells are centrifuged, resuspended in culture medium and counted in a Casy cell counter. Then 40,000 cells per well are seeded into a white, 96-well plate coated with poly-D-lysine and incubated overnight at 37° C., 5% CO2. The cells are washed twice with 250 μl of assay buffer (Hanks Balanced Salt Solution, 137 mM NaCl, 5.4 mM KCl, 2.8 mM CaCl2, 1.2 mM MgSO4 and 10 mM HEPES (pH 7.4), 50 μg/mL of gentamycin). 250 μl of assay buffer and 5 μl of test compound are then added to each well and the plate is incubated for a further 15 minutes in the incubator. 5 μl of 10% DMSO are used as the negative control. The reaction is started by adding 5 μl of 14 C-AMG (0.05 μCi) to each well. After 2 hours' incubation at 37° C., 5% CO2, the cells are washed again with 250 μl of PBS […] and then lysed by the addition of 25 μl of 0.1 N NaOH (5 min. at 37° C.). 200 μl of MicroScint20 (Packard) are added to each well and incubation is continued for a further 20 min at 37° C. After this incubation the radioactivity of the 14 C-AMG absorbed is measured in a Topcount (Packard) using a 14 C scintillation program.
To determine the selectivity with respect to human SGLT1 an analogous test is set up in which the cDNA for hSGLTI (Genbank Ace. No. NM000343) instead of hSGLT2 cDNA is expressed in CHO-K1 or HEK293 cells.

Test [2] concerns the target human sodium glucose co-transporter 2 (Homo sapiens (Human), UniProt P31639). Description: SGLT-2 assay: 14C-AMG uptake in CHO-hSGLT2 or HEK-hSGLT2 cells. Conditions: n = 1-4, cells stably transfected with hSGLT2, read-out: SGLT2 IC50 nM (n = 1-4). It is filed as cell-based. On the procedure: These cell lines transport 14 C-labelled alpha-methyl-glucopyranoside (14 C-AMG, Amersham) into the interior of the cell in sodium-dependent manner.
as §1

human sodium glucose co-transporter 2, sequence (P31639 whole entry): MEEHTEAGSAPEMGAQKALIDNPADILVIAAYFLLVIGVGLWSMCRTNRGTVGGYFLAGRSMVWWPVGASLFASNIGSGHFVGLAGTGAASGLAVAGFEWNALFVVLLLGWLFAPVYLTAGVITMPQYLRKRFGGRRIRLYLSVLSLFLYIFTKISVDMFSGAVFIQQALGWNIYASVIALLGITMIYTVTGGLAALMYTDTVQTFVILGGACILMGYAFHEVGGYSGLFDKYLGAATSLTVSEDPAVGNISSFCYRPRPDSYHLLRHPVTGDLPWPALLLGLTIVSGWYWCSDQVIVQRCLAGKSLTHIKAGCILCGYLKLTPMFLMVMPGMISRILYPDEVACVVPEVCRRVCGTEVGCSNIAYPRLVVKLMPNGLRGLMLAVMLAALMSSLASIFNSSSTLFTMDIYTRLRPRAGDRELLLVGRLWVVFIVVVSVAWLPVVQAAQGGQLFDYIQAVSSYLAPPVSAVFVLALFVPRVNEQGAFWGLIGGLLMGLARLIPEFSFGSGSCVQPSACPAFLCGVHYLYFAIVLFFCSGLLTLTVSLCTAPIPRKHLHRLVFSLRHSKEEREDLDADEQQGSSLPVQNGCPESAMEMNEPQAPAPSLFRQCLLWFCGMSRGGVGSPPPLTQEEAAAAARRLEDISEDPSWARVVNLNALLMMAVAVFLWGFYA
human SGLT1, sequence (P13866 whole entry): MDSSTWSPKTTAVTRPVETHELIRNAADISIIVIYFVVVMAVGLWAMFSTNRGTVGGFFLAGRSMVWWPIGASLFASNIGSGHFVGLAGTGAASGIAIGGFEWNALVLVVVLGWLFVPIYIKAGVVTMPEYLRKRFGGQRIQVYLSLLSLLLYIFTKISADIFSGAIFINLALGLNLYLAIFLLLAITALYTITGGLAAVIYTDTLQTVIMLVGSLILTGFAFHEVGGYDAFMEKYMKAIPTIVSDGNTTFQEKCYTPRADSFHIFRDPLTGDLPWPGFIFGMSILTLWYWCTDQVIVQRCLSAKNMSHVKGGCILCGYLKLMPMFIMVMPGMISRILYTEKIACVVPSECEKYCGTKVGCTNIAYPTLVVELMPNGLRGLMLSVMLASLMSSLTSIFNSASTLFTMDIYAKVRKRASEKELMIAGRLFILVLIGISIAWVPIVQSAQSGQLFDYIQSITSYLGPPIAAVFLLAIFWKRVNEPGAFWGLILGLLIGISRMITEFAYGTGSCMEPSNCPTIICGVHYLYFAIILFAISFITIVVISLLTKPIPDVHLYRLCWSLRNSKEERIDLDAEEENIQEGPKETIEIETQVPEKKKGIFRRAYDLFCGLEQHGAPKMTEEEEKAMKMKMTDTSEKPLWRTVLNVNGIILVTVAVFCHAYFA

For orientation: IC50 means the concentration at which inhibition is half-maximal. On to `CN1CCOc2cc(Cc3cc([C@@H]4O[C@H](CO)[C@@H](O)[C@H](O)[C@H]4O)ccc3Cl)ccc21` [Example 1, (2S,3R,4R,5S,6R)-2-[4-Chloro-3-(4-methyl-3,4-dihydro-2H benzo[1,4]oxazin-7-ylmethyl)-phenyl]-6-hydroxymethyl-tetrahydro-pyran-3,4,5-triol], for which the concentration for half-maximal inhibition (IC50) in test [1] was 655 nM; in test [2] it was 2.7 nM.

As for `CCN1CCOc2cc(Cc3cc([C@@H]4O[C@H](CO)[C@@H](O)[C@H](O)[C@H]4O)ccc3Cl)ccc21` [Example 2, (2S,3R,4R,5S,6R)-2-[4-Chloro-3-(4-ethyl-3,4-dihydro-2H-benzo[1,4]oxazin-7-ylmethyl)-phenyl]-6-hydroxymethyl-tetrahydro-pyran-3,4,5-triol], the IC50 in test [1] turned out to be 2500 nM; in test [2] it was 11.1 nM.

On to `OC[C@H]1O[C@@H](c2ccc(Cl)c(Cc3ccc4c(c3)OCCN4C3CC3)c2)[C@H](O)[C@@H](O)[C@@H]1O` [Example 3, (2S,3R,4R,5S,6R)-2-[4-Chloro-3-(4-cyclopropyl-3,4-dihydro-2Hbenzo[1,4]oxazin-7ylmethyl)-phenyl]-6-hydroxymethyltetrahydropyran3,4,5-triol], for which the IC50 in test [2] stood at 16 nM.

For `OC[C@H]1O[C@@H](c2ccc(Cl)c(Cc3ccc4c(c3)N(Cc3ccccc3)CCO4)c2)[C@H](O)[C@@H](O)[C@@H]1O` [Example 4, (2S,3R,4R,5S,6R)-2-[3-(4-Benzyl-3,4-dihydro-2H-benzo[1,4]oxazin-6-ylmethyl)-4-chloro-phenyl]-6-hydroxymethyl-tetrahydro-pyran-3,4,5-triol], the IC50 in test [2] amounted to 65 nM.

With `OC[C@H]1O[C@@H](c2ccc(Cl)c(Cc3ccc4c(c3)NCCO4)c2)[C@H](O)[C@@H](O)[C@@H]1O` [Example 8, (2S,3R,4R,5S,6R)-2-[4-Chloro-3-(3,4-dihydro-2H-benzo[1,4]oxazin-6-ylmethyl)-phenyl]-6-hydroxymethyl-tetrahydro-pyran-3,4,5-triol], the IC50 was 725 nM in test [1] and 0.25 nM in test [2].

For `CCN1CCOc2ccc(Cc3cc([C@@H]4O[C@H](CO)[C@@H](O)[C@H](O)[C@H]4O)ccc3Cl)cc21` [Example 9, (2S,3R,4R,5S,6R)-2-[4-Chloro-3-(4-ethyl-3,4-dihydro-2H-benzo[1,4]oxazin-6-ylmethyl)-phenyl]-6-hydroxymethyl-tetrahydro-pyran-3,4,5-triol], the IC50 in test [2] was 7.2 nM.

`OC[C@H]1O[C@@H](c2ccc(Cl)c(Cc3ccc4c(c3)N(CC3CC3)CCO4)c2)[C@H](O)[C@@H](O)[C@@H]1O` [Example 10, (2S,3R,4R,5S,6R)-2-[4-Chloro-3-(4-cyclopropylmethyl-3,4-dihydro-2H-benzo[1,4]oxazin-6-ylmethyl)-phenyl]-6-hydroxymethyl-tetrahydro-pyran-3,4,5-triol]: the IC50 in test [2] turned out to be 18 nM.

On to `COc1ccc(CN2CCCc3cc(Cc4cc([C@@H]5O[C@H](CO)[C@@H](O)[C@H](O)[C@H]5O)ccc4Cl)ccc32)cc1` [Example 14, (2S,3R,4R,5S,6R)-2-{4-Chloro-3-[1-(4-methoxy-benzyl)-1,2,3,4-tetrahydro-quinolin-6-ylmethyl]-phenyl}-6-hydroxymethyl-tetrahydro-pyran-3,4,5-triol], for which the IC50 is 800 nM in test [1] and 5.5 nM in test [2].

On to `OC[C@H]1O[C@@H](c2ccc(Cl)c(Cc3ccc4c(c3)CCCN4)c2)[C@H](O)[C@@H](O)[C@@H]1O` [Example 15, (2S,3R,4R,5S,6R)-2-[4-Chloro-3-(1,2,3,4-tetrahydro-quinolin-6-ylmethyl)-phenyl]-6-hydroxymethyl-tetrahydro-pyran-3,4,5-triol], for which the IC50 was 650 nM in test [1] and 0.2 nM in test [2].

Consider `OC[C@H]1O[C@@H](c2ccc(Cl)c(Cc3ccc4c(c3)NCCC4)c2)[C@H](O)[C@@H](O)[C@@H]1O` [Example 16, (2S,3R,4R,5S,6R)-2-[4-Chloro-3-(1,2,3,4-tetrahydro-quinolin-7-ylmethyl)-phenyl]-6-hydroxymethyl-tetrahydro-pyran-3,4,5-triol], for which the results for the half-inhibitory concentration (IC50) in test [1] and in test [2] were 750 nM and 0.15 nM, respectively.

Take `OC[C@H]1O[C@@H](c2ccc(Cl)c(Cc3ccc4c(c3)CCN4)c2)[C@H](O)[C@@H](O)[C@@H]1O` [Example 17, (2S,3R,4R,5S,6R)-2-[4-Chloro-3-(2,3-dihydro-1H-indol-5-ylmethyl)-phenyl]-6-hydroxymethyl-tetrahydro-pyran-3,4,5-triol]: the 50% inhibitory concentration (IC50) in test [1] came to 480 nM; in test [2], 0.8 nM.

With `CC1(C)CNc2cc(Cc3cc([C@@H]4O[C@H](CO)[C@@H](O)[C@H](O)[C@H]4O)ccc3Cl)ccc2O1` [Example 20, (2S,3R,4R,5S,6R)-2-[4-Chloro-3-(2,2-dimethyl-3,4-dihydro-2H-benzo[1,4]oxazin-6-ylmethyl)-phenyl]-6-hydroxymethyl-tetrahydro-pyran-3,4,5-triol], the IC50 is over 3700 nM in test [1] and 0.55 nM in test [2].

In the case of `OC[C@H]1O[C@@H](c2ccc(Cl)c(Cc3ccc4c(c3)CCCO4)c2)[C@H](O)[C@@H](O)[C@@H]1O` [Example 21, (2S,3R,4R,5S,6R)-2-(4-Chloro-3-chroman-6-ylmethyl-phenyl)-6-hydroxymethyl-tetrahydro-pyran-3,4,5-triol], the IC50 worked out at 1100 nM in test [1] and 0.2 nM in test [2].

Turning to `OC[C@H]1O[C@@H](c2ccc(Cl)c(Cc3ccc4c(c3)CCO4)c2)[C@H](O)[C@@H](O)[C@@H]1O` [Example 22, (2S,3R,4R,5S,6R)-2-[4-Chloro-3-(2,3-dihydro-benzofuran-5-ylmethyl)-phenyl]-6-hydroxymethyl-tetrahydro-pyran-3,4,5-triol], the IC50 in test [2] is 0.4 nM.

`OC[C@H]1O[C@@H](c2ccc(F)c(Cc3ccc4c(c3)NCCO4)c2)[C@H](O)[C@@H](O)[C@@H]1O` [Example 24, (2S,3R,4R,5S,6R)-2-[3-(3,4-Dihydro-2H-benzo[1,4]oxazin-6-ylmethyl)-4-fluoro-phenyl]-6-hydroxymethyl-tetrahydro-pyran-3,4,5-triol]: the 50% inhibitory concentration (IC50) in test [1] turned out to be 31000 nM; in test [2], 1.3 nM.

Turning to `COc1ccc([C@@H]2O[C@H](CO)[C@@H](O)[C@H](O)[C@H]2O)cc1Cc1ccc2c(c1)OCCO2` [Example 25, (2S,3R,4R,5S,6R)-2-[3-(2,3-Dihydro-benzo[1,4]dioxin-6-ylmethyl)-4-methoxy-phenyl]-6-hydroxymethyl-tetrahydro-pyran-3,4,5-triol], the IC50 in test [1] was determined as 40 nM; in test [2], 1.5 nM.

On to `OC[C@H]1O[C@@H](c2ccc(Cl)c(Cc3ccc4c(c3)OCCN4)c2)[C@H](O)[C@@H](O)[C@@H]1O` [Example 28, (2S,3R,4R,5S,6R)-2-[4-Chloro-3-(3,4-dihydro-2H-benzo[1,4]oxazin-7-ylmethyl)-phenyl]-6-hydroxymethyl-tetrahydro-pyran-3,4,5-triol], for which the IC50 in test [1] was found to be 1000 nM; in test [2] it was 0.33 nM.

`OC[C@H]1O[C@@H](c2ccc(Cl)c(Cc3ccc4c(c3)C3(CCO4)CC3)c2)[C@H](O)[C@@H](O)[C@@H]1O` [Example 29, (2S,3R,4R,5S,6R)-2-[4-Chloro-3-(4,4-spiro-cyclopropyl-chroman-6-ylmethyl)-phenyl]-6-hydroxymethyl-tetrahydro-pyran-3,4,5-triol]: the results for the IC50 in test [1] and in test [2] were 7000 nM and 84.5 nM, respectively.

Regarding `COc1ccc([C@@H]2O[C@H](CO)[C@@H](O)[C@H](O)[C@H]2O)cc1Cc1ccc2c(c1)NCCO2` [Example 31, (2S,3R,4R,5S,6R)-2-[3-(3,4-Dihydro-2H-benzo[1,4]oxazin-6-ylmethyl)-4-methoxy-phenyl]-6-hydroxymethyl-tetrahydro-pyran-3,4,5-triol], the IC50 was found to be 404 nM in test [1] and 1.2 nM in test [2].

As for `OC[C@H]1O[C@@H](c2ccc(OC(F)(F)F)c(Cc3ccc4c(c3)CCCO4)c2)[C@H](O)[C@@H](O)[C@@H]1O` [Example 33, (2S,3R,4R,5S,6R)-2-(3-Chroman-6-ylmethyl-4-trifluoromethoxy-phenyl)-6-hydroxymethyl-tetrahydro-pyran-3,4,5-triol], the half-inhibitory concentration (IC50) in test [1] was 157 nM; in test [2], 11 nM.

Turning to `OC[C@H]1O[C@@H](c2ccc(Cl)c(Cc3ccc4c(c3)C(O)CCO4)c2)[C@H](O)[C@@H](O)[C@@H]1O` (stereo partly drawn) [Example 36, (2S,3R,4R,5S,6R)-2-[4-Chloro-3-(4-hydroxy-chroman-6-ylmethyl)-phenyl]-6-hydroxymethyl-tetrahydro-pyran-3,4,5-triol], in test [2], the IC50 came to 28 nM.

Turning to `OC[C@H]1O[C@@H](c2ccc(Cl)c(Cc3ccc4c(c3)CCC3(CCCC3)O4)c2)[C@H](O)[C@@H](O)[C@@H]1O` [Example 38, (2S,3R,4R,5S,6R)-2-[4-Chloro-3-(spiro[chromane-2,1′-cyclopentane]-6-ylmethyl)phenyl]-6-(hydroxymethyl)tetrahydropyran-3,4,5-triol], the IC50 in test [2] is 14.4 nM.
